ChEMBL document CHEMBL1201862, “PubChem BioAssay data set” (2004)
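These data come from cells grown in 96-well plates and exposed to compound for 48 hours at five concentrations. GI50 marks 50% less growth.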 Calls of active or inactive are those of the source. Rule as the data show it: active = GI50 up to about 1.1 µM and inactive = higher.

Experiments:
Test in all cases: NCI anticancer screen, dose series, 48 h
[1] = test system: BT-549
[2] = test system: NCI-H522
[3] = test system: HCT-15
[4] = test system: MCF7
[5] = test system: HL-60
[6] = test system: MOLT-4
[7] = test system: TK-10
[8] = test system: UO-31
[9] = test system: HOP-92
[10] = test system: NCI-H226
[11] = test system: SR
[12] = test system: PC-3
[13] = test system: OVCAR-8
[14] = test system: SF-539
[15] = test system: OVCAR-4
[16] = test system: 786-0
[17] = test system: OVCAR-3
[18] = test system: NCI-H460
[19] = test system: Malme-3M
[20] = test system: A498
[21] = test system: K562
[22] = test system: NCI-H23
[23] = test system: SW-620
[24] = test system: COLO 205
[25] = test system: M14
[26] = test system: MDA-MB-435
[27] = test system: OVCAR-5
[28] = test system: UACC-62
[29] = test system: SN12C
[30] = test system: A549
[31] = test system: KM12
[32] = test system: SNB-75
[33] = test system: SNB-19
[34] = test system: CAKI-1
[35] = test system: DU-145
[36] = test system: SK-MEL-28
[37] = test system: SF-268
[38] = test system: Hs-578T
[39] = test system: CCRF-CEM
[40] = test system: T47D
[41] = test system: HCT-116
[42] = test system: U-251
[43] = test system: IGROV-1
[44] = test system: SK-MEL-2
[45] = test system: HT-29
[46] = test system: SF-295
[47] = test system: MDA-MB-231
[48] = test system: MDA-N
[49] = test system: ACHN
[50] = test system: SK-MEL-5
[51] = test system: NCI/ADR-RES
[52] = test system: LOX IMVI
[53] = test system: HOP-62
[54] = test system: UACC-257
[55] = test system: SK-OV-3
[56] = test system: EKVX
[57] = test system: RXF 393
[58] = test system: RPMI-8226
[59] = test system: HCC 2998

## O=C(NC(=S)Nc1ccc(Br)cc1)c1ccc2c(c1)Sc1ccccc1S2
[1]
  GI50: 39.1 µM (inactive)
[2]
  GI50: 23.1 µM (inactive)
[3]
  GI50: 38 µM
[4]
  GI50: 32.7 µM (inactive)
[5]
  GI50: 17.5 µM (inactive)
[6]
  GI50: 7.53 µM (inactive)
[7]
  GI50: 16.9 µM (inactive)
[8]
  GI50: 12.9 µM (inactive)
[9]
  GI50: 15.8 µM (inactive)
[10]
  GI50: 23.4 µM (inactive)
[11]
  GI50: 17.3 µM (inactive)
[12]
  GI50: 47.8 µM (inactive)
[13]
  GI50: 17.3 µM (inactive)
[14]
  GI50: 24.3 µM (inactive)
[15]
  GI50: 19.2 µM (inactive)
[16]
  GI50: 16.2 µM (inactive)
[17]
  GI50: 20.3 µM (inactive)
[18]
  GI50: 17.9 µM (inactive)
[19]
  GI50: 24.4 µM (inactive)
[20]
  GI50: 19.6 µM (inactive)
[21]
  GI50: 9.04 µM (inactive)
[22]
  GI50: 21.5 µM (inactive)
[23]
  GI50: 31.6 µM (inactive)
[24]
  GI50: 41.8 µM (inactive)
[25]
  GI50: 12.4 µM (inactive)
[26]
  GI50: 94.4 µM (inactive)
[27]
  GI50: 20.6 µM (inactive)
[28]
  GI50: 27.5 µM (inactive)
[29]
  GI50: 18.8 µM (inactive)
[30]
  GI50: 21 µM (inactive)
[31]
  GI50: 23.8 µM (inactive)
[32]
  GI50: 15 µM (inactive)
[33]
  GI50: 25.2 µM (inactive)
[34]
  GI50: 20.1 µM (inactive)
[35]
  GI50: 17.3 µM (inactive)
[36]
  GI50: 78.7 µM (inactive)
[37]
  GI50: 21.9 µM (inactive)
[38]
  GI50: 26.5 µM (inactive)
[39]
  GI50: 16.5 µM (inactive)
[40]
  GI50: 16.9 µM (inactive)
[41]
  GI50: 23.2 µM (inactive)
[42]
  GI50: 19 µM (inactive)
[43]
  GI50: 16.1 µM (inactive)
[44]
  GI50: 24.5 µM (inactive)
[45]
  GI50: 33.6 µM (inactive)
[46]
  GI50: 20.4 µM (inactive)
[47]
  GI50: 17.6 µM (inactive)
[48]
  GI50: 28.9 µM (inactive)
[49]
  GI50: 18.2 µM (inactive)
[50]
  GI50: 51.1 µM (inactive)
[51]
  GI50: 24.2 µM (inactive)
[52]
  GI50: 23.3 µM (inactive)
[53]
  GI50: 16.1 µM (inactive)
[54]
  GI50: 21.7 µM (inactive)
[55]
  GI50: 16.7 µM (inactive)

## NS(=O)(=O)c1ccc(C(=O)O)cc1 [CARZENIDE]
[1]
  GI50: > 100 µM (inactive)
[2]
  GI50: > 100 µM (inactive)
[3]
  GI50: > 100 µM
[4]
  GI50: > 100 µM (inactive)
[5]
  GI50: > 100 µM (inactive)
[6]
  GI50: > 100 µM (inactive)
[7]
  GI50: > 100 µM (inactive)
[8]
  GI50: > 100 µM (inactive)
[9]
  GI50: 97.5 µM (inactive)
[56]
  GI50: > 100 µM (inactive)
[12]
  GI50: > 100 µM (inactive)
[13]
  GI50: > 100 µM (inactive)
[15]
  GI50: > 100 µM (inactive)
[16]
  GI50: > 100 µM (inactive)
[17]
  GI50: > 100 µM (inactive)
[19]
  GI50: > 100 µM (inactive)
[20]
  GI50: > 100 µM (inactive)
[21]
  GI50: > 100 µM (inactive)
[22]
  GI50: > 100 µM (inactive)
[23]
  GI50: > 100 µM (inactive)
[24]
  GI50: > 100 µM (inactive)
[25]
  GI50: > 100 µM (inactive)
[26]
  GI50: > 100 µM (inactive)
[27]
  GI50: > 100 µM (inactive)
[28]
  GI50: > 100 µM (inactive)
[29]
  GI50: > 100 µM (inactive)
[30]
  GI50: > 100 µM (inactive)
[31]
  GI50: > 100 µM (inactive)
[33]
  GI50: > 100 µM (inactive)
[34]
  GI50: > 100 µM (inactive)
[35]
  GI50: > 100 µM (inactive)
[36]
  GI50: > 100 µM (inactive)
[37]
  GI50: > 100 µM (inactive)
[38]
  GI50: > 100 µM (inactive)
[39]
  GI50: > 100 µM (inactive)
[40]
  GI50: > 100 µM (inactive)
[41]
  GI50: > 100 µM (inactive)
[42]
  GI50: > 100 µM (inactive)
[43]
  GI50: > 100 µM (inactive)
[44]
  GI50: > 100 µM (inactive)
[45]
  GI50: > 100 µM (inactive)
[46]
  GI50: > 100 µM (inactive)
[47]
  GI50: > 100 µM (inactive)
[48]
  GI50: > 100 µM (inactive)
[49]
  GI50: > 100 µM (inactive)
[50]
  GI50: > 100 µM (inactive)
[51]
  GI50: > 100 µM (inactive)
[52]
  GI50: > 100 µM (inactive)
[57]
  GI50: > 100 µM (inactive)
[53]
  GI50: > 100 µM (inactive)
[55]
  GI50: > 100 µM (inactive)
[58]
  GI50: > 100 µM (inactive)

## NC(Cc1ccc(S(=O)(=O)O)cc1)C(=O)NC(Cc1ccc(S(=O)(=O)O)cc1)C(=O)NC(Cc1ccc(S(=O)(=O)O)cc1)C(=O)O (configuration not stated)
[1]
  GI50: > 100 µM (inactive)
[2]
  GI50: > 100 µM (inactive)
[3]
  GI50: > 100 µM
[4]
  GI50: > 100 µM (inactive)
[5]
  GI50: > 100 µM (inactive)
[6]
  GI50: > 100 µM (inactive)
[7]
  GI50: > 100 µM (inactive)
[8]
  GI50: > 100 µM (inactive)
[10]
  GI50: > 100 µM (inactive)
[56]
  GI50: > 100 µM (inactive)
[12]
  GI50: > 100 µM (inactive)
[13]
  GI50: > 100 µM (inactive)
[14]
  GI50: > 100 µM (inactive)
[15]
  GI50: > 100 µM (inactive)
[16]
  GI50: > 100 µM (inactive)
[17]
  GI50: > 100 µM (inactive)
[18]
  GI50: > 100 µM (inactive)
[19]
  GI50: > 100 µM (inactive)
[20]
  GI50: > 100 µM (inactive)
[21]
  GI50: > 100 µM (inactive)
[22]
  GI50: > 100 µM (inactive)
[23]
  GI50: > 100 µM (inactive)
[24]
  GI50: > 100 µM (inactive)
[25]
  GI50: > 100 µM (inactive)
[26]
  GI50: > 100 µM (inactive)
[27]
  GI50: > 100 µM (inactive)
[28]
  GI50: > 100 µM (inactive)
[29]
  GI50: > 100 µM (inactive)
[30]
  GI50: > 100 µM (inactive)
[31]
  GI50: > 100 µM (inactive)
[32]
  GI50: > 100 µM (inactive)
[59]
  GI50: > 100 µM (inactive)
[34]
  GI50: > 100 µM (inactive)
[35]
  GI50: > 100 µM (inactive)
[36]
  GI50: > 100 µM (inactive)
[37]
  GI50: > 100 µM (inactive)
[38]
  GI50: > 100 µM (inactive)
[39]
  GI50: > 100 µM (inactive)
[40]
  GI50: > 100 µM (inactive)
[41]
  GI50: > 100 µM (inactive)
[42]
  GI50: > 100 µM (inactive)
[43]
  GI50: > 100 µM (inactive)
[44]
  GI50: > 100 µM (inactive)
[45]
  GI50: > 100 µM (inactive)
[46]
  GI50: > 100 µM (inactive)
[47]
  GI50: > 100 µM (inactive)
[48]
  GI50: > 100 µM (inactive)
[49]
  GI50: > 100 µM (inactive)
[50]
  GI50: > 100 µM (inactive)
[51]
  GI50: > 100 µM (inactive)
[52]
  GI50: > 100 µM (inactive)
[57]
  GI50: > 100 µM (inactive)
[53]
  GI50: > 100 µM (inactive)
[54]
  GI50: > 100 µM (inactive)
[58]
  GI50: > 100 µM (inactive)
